Laboratory results: US20140120232A1, “ACID TASTE/ACID SMELL-REDUCING AGENT” (T. HASEGAWA CO., LTD., priority 2011, published 2014)

Experiment: Sensory evaluation of Vermont drink containing the agent
Details: ten panels
Outline: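 Tridecadienal or tridecatrienal isomers added at various concentrations to a Vermont-flavoured drink (apple-cider vinegar, honey, liquid sugar, citric acid, trisodium citrate, 100 mL total). Ten panelists assessed acid taste/acid smell and aldehyde-type off-odour, and the concentration giving the best acid taste/smell quality was selected.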

Structure (SMILES): CCCCC/C=C\C/C=C\C=C\C=O [(E,Z,Z)-2,4,7-tridecatrienal]
- A: number of panels, acid taste/acid smell extreme and cause irritation (0.005 ppt): 10
- B: number of panels, acid taste/acid smell slightly strong and slightly cause irritation (0.005 ppt): 0
- C: number of panels, acid taste/acid smell slightly unpleasant (0.005 ppt): 0
- Flavor judgment: number of panels who judged acid taste/acid smell quality the highest (0.005 ppt): 0
- N: number of panels, irritation of acid reduced to give a mild acid taste (0.005 ppt): 0
- X: number of panels, acid taste reduced but piercing odor characteristic to aldehydes unpleasant (0.005 ppt): 0
- A: number of panels, acid taste/acid smell extreme and cause irritation (0.02 ppt): 8
- B: number of panels, acid taste/acid smell slightly strong and slightly cause irritation (0.02 ppt): 1
- C: number of panels, acid taste/acid smell slightly unpleasant (0.02 ppt): 1
- Flavor judgment: number of panels who judged acid taste/acid smell quality the highest (0.02 ppt): 0
- N: number of panels, irritation of acid reduced to give a mild acid taste (0.02 ppt): 0
- X: number of panels, acid taste reduced but piercing odor characteristic to aldehydes unpleasant (0.02 ppt): 0
- A: number of panels, acid taste/acid smell extreme and cause irritation (0.1 ppt): 7
- B: number of panels, acid taste/acid smell slightly strong and slightly cause irritation (0.1 ppt): 2
- C: number of panels, acid taste/acid smell slightly unpleasant (0.1 ppt): 1
- Flavor judgment: number of panels who judged acid taste/acid smell quality the highest (0.1 ppt): 0
- N: number of panels, irritation of acid reduced to give a mild acid taste (0.1 ppt): 0
- X: number of panels, acid taste reduced but piercing odor characteristic to aldehydes unpleasant (0.1 ppt): 0
- A: number of panels, acid taste/acid smell extreme and cause irritation (0.2 ppt): 4
- B: number of panels, acid taste/acid smell slightly strong and slightly cause irritation (0.2 ppt): 3
- C: number of panels, acid taste/acid smell slightly unpleasant (0.2 ppt): 3
- Flavor judgment: number of panels who judged acid taste/acid smell quality the highest (0.2 ppt): 0
- N: number of panels, irritation of acid reduced to give a mild acid taste (0.2 ppt): 0
- X: number of panels, acid taste reduced but piercing odor characteristic to aldehydes unpleasant (0.2 ppt): 0
- A: number of panels, acid taste/acid smell extreme and cause irritation (0.5 ppt): 0
- B: number of panels, acid taste/acid smell slightly strong and slightly cause irritation (0.5 ppt): 1
- C: number of panels, acid taste/acid smell slightly unpleasant (0.5 ppt): 3
- Flavor judgment: number of panels who judged acid taste/acid smell quality the highest (0.5 ppt): 1
- N: number of panels, irritation of acid reduced to give a mild acid taste (0.5 ppt): 6
- X: number of panels, acid taste reduced but piercing odor characteristic to aldehydes unpleasant (0.5 ppt): 0
- A: number of panels, acid taste/acid smell extreme and cause irritation (1 ppb): 0
- B: number of panels, acid taste/acid smell slightly strong and slightly cause irritation (1 ppb): 0
- C: number of panels, acid taste/acid smell slightly unpleasant (1 ppb): 3
- Flavor judgment: number of panels who judged acid taste/acid smell quality the highest (1 ppb): 0
- N: number of panels, irritation of acid reduced to give a mild acid taste (1 ppb): 3
- X: number of panels, acid taste reduced but piercing odor characteristic to aldehydes unpleasant (1 ppb): 4
- A: number of panels, acid taste/acid smell extreme and cause irritation (1 ppt): 0
- B: number of panels, acid taste/acid smell slightly strong and slightly cause irritation (1 ppt): 1
- C: number of panels, acid taste/acid smell slightly unpleasant (1 ppt): 2
- Flavor judgment: number of panels who judged acid taste/acid smell quality the highest (1 ppt): 3
- N: number of panels, irritation of acid reduced to give a mild acid taste (1 ppt): 7
- X: number of panels, acid taste reduced but piercing odor characteristic to aldehydes unpleasant (1 ppt): 0
- A: number of panels, acid taste/acid smell extreme and cause irritation (5 ppt): 0
- B: number of panels, acid taste/acid smell slightly strong and slightly cause irritation (5 ppt): 0
- C: number of panels, acid taste/acid smell slightly unpleasant (5 ppt): 3
- Flavor judgment: number of panels who judged acid taste/acid smell quality the highest (5 ppt): 3
- N: number of panels, irritation of acid reduced to give a mild acid taste (5 ppt): 7
- X: number of panels, acid taste reduced but piercing odor characteristic to aldehydes unpleasant (5 ppt): 0
- A: number of panels, acid taste/acid smell extreme and cause irritation (10 ppb): 0
- B: number of panels, acid taste/acid smell slightly strong and slightly cause irritation (10 ppb): 0
- C: number of panels, acid taste/acid smell slightly unpleasant (10 ppb): 2
- Flavor judgment: number of panels who judged acid taste/acid smell quality the highest (10 ppb): 0
- N: number of panels, irritation of acid reduced to give a mild acid taste (10 ppb): 3
- X: number of panels, acid taste reduced but piercing odor characteristic to aldehydes unpleasant (10 ppb): 5
- A: number of panels, acid taste/acid smell extreme and cause irritation (20 ppt): 0
- B: number of panels, acid taste/acid smell slightly strong and slightly cause irritation (20 ppt): 0
- C: number of panels, acid taste/acid smell slightly unpleasant (20 ppt): 4
- Flavor judgment: number of panels who judged acid taste/acid smell quality the highest (20 ppt): 3
- N: number of panels, irritation of acid reduced to give a mild acid taste (20 ppt): 6
- X: number of panels, acid taste reduced but piercing odor characteristic to aldehydes unpleasant (20 ppt): 0
- A: number of panels, acid taste/acid smell extreme and cause irritation (50 ppb): 0
- B: number of panels, acid taste/acid smell slightly strong and slightly cause irritation (50 ppb): 0
- C: number of panels, acid taste/acid smell slightly unpleasant (50 ppb): 1
- Flavor judgment: number of panels who judged acid taste/acid smell quality the highest (50 ppb): 0
- N: number of panels, irritation of acid reduced to give a mild acid taste (50 ppb): 2
- X: number of panels, acid taste reduced but piercing odor characteristic to aldehydes unpleasant (50 ppb): 7
- A: number of panels, acid taste/acid smell extreme and cause irritation (100 ppt): 0
- B: number of panels, acid taste/acid smell slightly strong and slightly cause irritation (100 ppt): 2
- C: number of panels, acid taste/acid smell slightly unpleasant (100 ppt): 3
- Flavor judgment: number of panels who judged acid taste/acid smell quality the highest (100 ppt): 0
- N: number of panels, irritation of acid reduced to give a mild acid taste (100 ppt): 4
- X: number of panels, acid taste reduced but piercing odor characteristic to aldehydes unpleasant (100 ppt): 1
- A: number of panels, acid taste/acid smell extreme and cause irritation (500 ppt): 0
- B: number of panels, acid taste/acid smell slightly strong and slightly cause irritation (500 ppt): 0
- C: number of panels, acid taste/acid smell slightly unpleasant (500 ppt): 3
- Flavor judgment: number of panels who judged acid taste/acid smell quality the highest (500 ppt): 0
- N: number of panels, irritation of acid reduced to give a mild acid taste (500 ppt): 4
- X: number of panels, acid taste reduced but piercing odor characteristic to aldehydes unpleasant (500 ppt): 3
